Measured values from patent US10167262B2, “Herbicidal substituted 3-arylpyrazoles” (FMC CORPORATION, priority 2014, dated 2019).

What was measured:
Assay type in all cases: in vivo
[1] = system: Italian ryegrass (Lolium multiflorum); assay: Test C pre-/postemergence greenhouse test, plant response rating 0-100; settings: Postemergence
In short: (§1)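 Plants were treated either at seeding (soil of loam and sand) or as 2–18 cm seedlings in a sphagnum peat mix, using test chemicals in a surfactant-containing non-phytotoxic solvent. Visual assessment relative to controls followed 13–15 days later.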

[2] = system: blackgrass (Alopecurus myosuroides); assay: as above; settings: Postemergence
In short: as §1

corn (Zea mays) = assay: as above; settings: Postemergence
In short: as §1

[3] = system: galium (catchweed bedstraw, Galium aparine); assay: as above; settings: Postemergence
In short: as §1

[4] = system: giant foxtail (Setaria faberii); assay: as above; settings: Postemergence
In short: as §1

[5] = system: large (Lg) crabgrass (Digitaria sanguinalis); assay: as above; settings: Postemergence
In short: as §1

[6] = system: pigweed (Amaranthus retroflexus); assay: as above; settings: Postemergence
In short: as §1

[7] = system: ragweed (common ragweed, Ambrosia elatior); assay: as above; settings: Postemergence
In short: as §1

soybean (Glycine max) = assay: as above; settings: Postemergence
In short: as §1

[8] = system: winter wheat (Triticum aestivum); assay: as above; settings: Postemergence
In short: as §1

[9] = system: yellow nutsedge (Cyperus esculentus); assay: as above; settings: Postemergence
In short: as §1

[10] = system: chickweed (common chickweed, Stellaria media); assay: Test C postemergence greenhouse test, plant response rating 0-100
In short: (§2)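 Scores run from 0, meaning no effect, to 100, meaning complete control, and come from visual comparison with untreated controls. Treatment was a postemergence application to plants 2–18 cm tall. Assessment followed 13 to 15 days of greenhouse growth.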

kochia (Kochia scoparia) = assay: as above
In short: as §2

wild oat (Avena fatua) = assay: as above
In short: as §2

## CC(C)n1cc(C(=O)c2ccccc2)c(-c2cc(Cl)cc(Cl)c2)n1 [Compound 44]
[1]; 62 g ai/ha
  Plant response rating (0 to 100), Ryegrass, Italian: 0
[1]; 125 g ai/ha
  Plant response rating (0 to 100), Ryegrass, Italian: 0
[1]; 250 g ai/ha, scale 0 to 100
  Plant response rating, Ryegrass, Italian: 0
[2]; 31 g ai/ha
  Plant response rating (0 to 100), Blackgrass: 0
[2]; 62 g ai/ha
  Plant response rating (0 to 100), Blackgrass: 0
[2]; 125 g ai/ha
  Plant response rating (0 to 100), Blackgrass: 0
[2]; 250 g ai/ha, scale 0 to 100
  Plant response rating, Blackgrass: 0
Corn (Zea mays); 31 g ai/ha
  Plant response rating (0 to 100), Corn: 0
Corn (Zea mays); 62 g ai/ha
  Plant response rating (0 to 100), Corn: 5
Corn (Zea mays); 125 g ai/ha
  Plant response rating (0 to 100), Corn: 5
Corn (Zea mays); 250 g ai/ha, scale 0 to 100
  Plant response rating, Corn: 10
[3]; 31 g ai/ha
  Plant response rating (0 to 100), Galium: 0
[3]; 62 g ai/ha
  Plant response rating (0 to 100), Galium: 0
[3]; 125 g ai/ha
  Plant response rating (0 to 100), Galium: 0
[3]; 250 g ai/ha, scale 0 to 100
  Plant response rating, Galium: 0
[4]; 31 g ai/ha
  Plant response rating (0 to 100), Foxtail, Giant: 0
[4]; 62 g ai/ha
  Plant response rating (0 to 100), Foxtail, Giant: 0
[4]; 125 g ai/ha
  Plant response rating (0 to 100), Foxtail, Giant: 0
[4]; 250 g ai/ha, scale 0 to 100
  Plant response rating, Foxtail, Giant: 20
[5]; 31 g ai/ha
  Plant response rating (0 to 100), Crabgrass, Large: 0
[5]; 62 g ai/ha
  Plant response rating (0 to 100), Crabgrass, Large: 5
[5]; 125 g ai/ha
  Plant response rating (0 to 100), Crabgrass, Large: 5
[5]; 250 g ai/ha, scale 0 to 100
  Plant response rating, Crabgrass, Large: 10
[6]; 62 g ai/ha
  Plant response rating (0 to 100), Pigweed: 60
[6]; 125 g ai/ha
  Plant response rating (0 to 100), Pigweed: 60
[6]; 250 g ai/ha, scale 0 to 100
  Plant response rating, Pigweed: 100
[7]; 62 g ai/ha
  Plant response rating (0 to 100), Ragweed: 5
[7]; 125 g ai/ha
  Plant response rating (0 to 100), Ragweed: 5
[7]; 250 g ai/ha, scale 0 to 100
  Plant response rating, Ragweed: 10
Soybean (Glycine max); 62 g ai/ha
  Plant response rating (0 to 100), Soybean: 5
Soybean (Glycine max); 125 g ai/ha
  Plant response rating (0 to 100), Soybean: 5
Soybean (Glycine max); 250 g ai/ha, scale 0 to 100
  Plant response rating, Soybean: 5
[8]; 62 g ai/ha
  Plant response rating (0 to 100), Wheat: 0
[8]; 125 g ai/ha
  Plant response rating (0 to 100), Wheat: 0
[8]; 250 g ai/ha, scale 0 to 100
  Plant response rating, Wheat: 0
[9]; 62 g ai/ha
  Plant response rating (0 to 100), Nutsedge, Yellow: 0
[9]; 125 g ai/ha
  Plant response rating (0 to 100), Nutsedge, Yellow: 0
[9]; 250 g ai/ha, scale 0 to 100
  Plant response rating, Nutsedge, Yellow: 0
[10]; 31 g ai/ha
  Plant response rating (0 to 100), Chickweed: 20
[10]; 62 g ai/ha
  Plant response rating (0 to 100), Chickweed: 35
[10]; 250 g ai/ha, scale 0 to 100
  Plant response rating, Chickweed: 50
Kochia (Kochia scoparia); 62 g ai/ha
  Plant response rating (0 to 100), Kochia: 55
Kochia (Kochia scoparia); 125 g ai/ha
  Plant response rating (0 to 100), Kochia: 65
Kochia (Kochia scoparia); 250 g ai/ha, scale 0 to 100
  Plant response rating, Kochia: 65
Wild oat (Avena fatua); 62 g ai/ha
  Plant response rating (0 to 100), Oat, Wild: 0
Wild oat (Avena fatua); 125 g ai/ha
  Plant response rating (0 to 100), Oat, Wild: 0
Wild oat (Avena fatua); 250 g ai/ha, scale 0 to 100
  Plant response rating, Oat, Wild: 0
